Like-named read-outs stand apart in the source and are kept apart here. No end group written: not given here.

By EC50 is commonly meant the midpoint of the concentration-response curve. A higher EC50 goes with weaker potency.

This assay addresses T1, GPR103 ΔCterm (Homo sapiens, UniProt Q96P65).
T1 construct: we truncated the C-terminal residues after G366 of human GPR103; expressed in transfected cells; host or cells: HEK293 cells, pCAGGS vector
T1 sequence (Q96P65 1-366): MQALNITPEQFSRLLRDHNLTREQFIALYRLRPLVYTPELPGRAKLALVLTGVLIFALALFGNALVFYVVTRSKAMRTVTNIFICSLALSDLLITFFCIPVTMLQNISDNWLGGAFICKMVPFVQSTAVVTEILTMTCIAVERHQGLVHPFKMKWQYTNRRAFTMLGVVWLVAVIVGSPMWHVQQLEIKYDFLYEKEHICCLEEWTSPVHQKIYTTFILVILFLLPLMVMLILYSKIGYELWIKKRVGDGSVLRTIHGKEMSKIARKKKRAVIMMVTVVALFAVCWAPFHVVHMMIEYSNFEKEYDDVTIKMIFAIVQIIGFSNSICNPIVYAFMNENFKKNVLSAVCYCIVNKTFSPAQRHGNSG
The assay is described as follows: TGFα shedding assay; Exp. level WT (1:20). The assay is classed as cell-based.

In the case of TSGPLGNLAEELNGYSRKKGGFSFRF-NH2 [QRFP26], the Emax (Exp. #1) turned out to be 83.85 % WT; the Emax (Exp. #2) is 86.40 % WT; the Emax (Exp. #3) is 89.99 % WT; the Emax (mean, read-out: Emax) worked out at 86.8%. This substance showed an EC50 (n = 3) of 0.0112 µM.

The values above are taken from publication PMC11187126, “Structure and dynamics of the pyroglutamylated RF-amide peptide QRFP receptor GPR103” (Nature Communications, 2024).
